# PMC10226132, “First-in-Class Selective Inhibitors of the Lysine Acetyltransferase KAT8” (Journal of Medicinal Chemistry, 2023)
# Like-named read-outs stand apart in the source and are kept apart here.
# Legend:
# KAT8 = target: T1, KAT8 (Homo sapiens, UniProt Q9H7Z6); test: Radioactive KAT8 inhibition assay; assay type: biochemical
# T1 construct: using the previously purified KAT8 (173–458, 5 nM); 6xHis tag with TEV protease cleavage site (N, cleaved yes); made in house; host or cells: E. coli BL21(DE3)
# T1 sequence (Q9H7Z6 173-458): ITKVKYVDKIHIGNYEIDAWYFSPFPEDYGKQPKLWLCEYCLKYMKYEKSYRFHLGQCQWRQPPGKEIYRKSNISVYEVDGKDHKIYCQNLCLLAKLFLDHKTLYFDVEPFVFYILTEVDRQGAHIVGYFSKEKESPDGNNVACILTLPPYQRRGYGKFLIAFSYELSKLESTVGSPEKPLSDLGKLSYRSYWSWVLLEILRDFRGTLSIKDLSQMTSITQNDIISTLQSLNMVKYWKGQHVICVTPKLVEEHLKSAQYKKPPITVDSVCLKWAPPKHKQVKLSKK
# Description: Purified KAT8 was incubated with the relevant inhibitor (1% DMSO final) in a 2-fold serial dilution starting at 200 μM for 20 min at rt. Then, [^3H]Ac-CoA and biotinylated peptide were added to a total assay volume of 50 μL and the reaction mixture was incubated at rt for 4 h. The reaction was stopped, and the mixture was transferred to a 96-well streptavidin scintillant coated FlashPlate (Perkin Elmer) and incubated for 60 min at rt. The FlashPlate was washed with 0.1% Tween-20, and the liquid scintillation counting (MicroBeta Microplate Counter, Perkin Elmer) was employed to measure the radioactive signal. Experiments were performed in biological triplicates. Signal reduction compared to control was plotted (as inhibition percentage) as a function of compound concentration and fitted by nonlinear regression (GraphPad Prism 8.0) finally yielding the IC50 values.
# KAT3B = target: T2, KAT3B (Homo sapiens, UniProt Q09472); test: HotSpot KAT assay, KAT3B; assay type: biochemical
# T2 construct: KAT3B (aa 1284–1672, 1 nM); purchased Reaction Biology Corporation
# T2 sequence (Q09472 1284-1672): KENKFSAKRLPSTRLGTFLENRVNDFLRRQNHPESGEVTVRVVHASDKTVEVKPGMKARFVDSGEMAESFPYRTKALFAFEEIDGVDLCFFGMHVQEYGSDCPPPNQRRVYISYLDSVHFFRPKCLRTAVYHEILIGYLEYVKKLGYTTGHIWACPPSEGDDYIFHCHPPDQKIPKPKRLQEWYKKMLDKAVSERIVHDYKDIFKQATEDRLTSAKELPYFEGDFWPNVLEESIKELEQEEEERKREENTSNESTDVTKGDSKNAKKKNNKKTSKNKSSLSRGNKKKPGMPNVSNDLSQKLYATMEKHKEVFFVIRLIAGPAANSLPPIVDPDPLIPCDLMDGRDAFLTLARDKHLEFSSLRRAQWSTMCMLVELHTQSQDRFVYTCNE
# Description: The effects of the compounds on other KATs were determined using the HotSpot KAT assay (Reaction Biology Corporation, Malvern, PA, USA) according to the supplier’s procedure. […] Histone peptide acetylation was assessed by liquid scintillation counting using a Tri-Carb 2800TR Liquid Scintillation Analyzer (Perkin Elmer). Experiments were performed in biological triplicates. Signal reduction compared to control was plotted (as inhibition percentage) as a function of compound concentration. In cases in which an IC50 was calculated, the values were fitted by nonlinear regression (GraphPad Prism 8.0).
# KAT2B = target: T3, KAT2B (Homo sapiens, UniProt Q92831); test: HotSpot KAT assay, KAT2B; assay type: biochemical; details: enzyme 25 nM; NI = no inhibition at 200 μM; mean ± SD of three independent experiments
# T3 construct: KAT2B (aa 492–658, 25 nM); purchased Reaction Biology Corporation
# T3 sequence (Q92831 492-658): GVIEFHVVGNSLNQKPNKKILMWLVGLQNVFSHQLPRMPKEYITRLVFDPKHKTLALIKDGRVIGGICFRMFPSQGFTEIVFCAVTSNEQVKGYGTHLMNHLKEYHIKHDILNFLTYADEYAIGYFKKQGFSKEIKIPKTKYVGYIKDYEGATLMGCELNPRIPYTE
# Description: (§1) The effects of the compounds on other KATs were determined using the HotSpot KAT assay (Reaction Biology Corporation, Malvern, PA, USA) according to the supplier’s procedure. The recombinant catalytic domains of human KAT2A (aa 323–837, 15 nM), KAT2B (aa 492–658, 25 nM), KAT3B (aa 1284–1672, 1 nM), KAT6A (aa 488–778, 10 nM), KAT6B (aa 657–1069, 10 nM), and full length human KAT5 (25 nM) and KAT7 (25 nM) were used. Each enzyme was incubated with the relevant histone peptide [H3 peptide for KAT2A, KAT2B, KAT3B, KAT6A, and KAT7 (2.5–5 μM, depending on the KAT isoform); H2A peptide for KAT5 (1.25 μM); H4 peptide for KAT6B (2.5 μM)] as a substrate and radio-isotope-labeled [^3H]Acetyl-CoA (0.2–1.5 μM, depending on the KAT isoform) as an acetyl donor in the assay buffer [50 mM Tris–HCl (pH 8.0), 50 mM NaCl, 0.1 mM EDTA, 1 mM DTT, 0.1 mM PMSF, 1% DMSO] for 1 h at 30 °C in the presence or absence of various compounds (1% DMSO final) titrated in a 2-fold serial dilution starting at 200 μM. Histone peptide acetylation was assessed by liquid scintillation counting using a Tri-Carb 2800TR Liquid Scintillation Analyzer (Perkin Elmer). Experiments were performed in biological triplicates. Signal reduction compared to control was plotted (as inhibition percentage) as a function of compound concentration. In cases in which an IC50 was calculated, the values were fitted by nonlinear regression (GraphPad Prism 8.0).
# HCT116 cells = test: MTT cell proliferation assay, HCT116; assay type: cell-based, human; details: 72 h treatment, MTT
# Excerpt: (§2) Human commercially available AML U937, breast cancer MCF7, lung adenocarcinoma NCI-H460, H1299 and A-549, glioblastoma U251, B lymphocyte AHH1 cell lines were maintained in compete 10% foetal bovine serum (FBS,) RPMI 1640 (Euroclone, Milan, IT) medium. Human commercially available colon cancer HCT116 and HT29 lines and cervix adenocarcinoma HeLa cells were maintained in compete 10% FBS Dulbecco’s Modified Eagle Medium (DMEM) high glucose medium (Euroclone). L-Glutamine, FBS, and penicillin streptomycin mixture added to medium were obtained from Euroclone. All cell lines were cultured at 37 °C in a humidified atmosphere of 5% CO2:95% air and were tested for mycoplasma contamination routinely by RT-PCR.
# (§3) For analysis of cell proliferation, cells were plated in sextuplicate on 96-well plates in complete media. After 24 h, cells were exposed to different drugs for 72 h. The inhibitory effect of different drugs was assessed by MTT (Sigma, St. Louis, MO, USA) colorimetric assays as previously reported.[67] Aqueous DMSO (0.5% v/v) was used as a control (untreated). The results are reported as “viability of drug-treated cells/viability of untreated cells” × 100 and represent the average ±SD of three independent experiments. IC50 values were using fitted by nonlinear regression using GraphPad Prism 8.0.
# H1299 cells = test: MTT cell proliferation assay, H1299; assay type: cell-based, human; details: 72 h treatment, MTT
# Excerpt: as §2, §3
# A549 cells = test: MTT cell proliferation assay, A549; assay type: cell-based, human; details: 72 h treatment, MTT
# Excerpt: as §2, §3
# U937 cells [1] = test: MTT cell proliferation assay, U937; assay type: cell-based, human; details: 72 h treatment, MTT
# Excerpt: as §2, §3
# AHH-1 cells = test: Proliferation of noncancer B lymphocyte AHH-1 cells; assay type: cell-based, human; details: 72 h
# Excerpt: as §2, §3
# [2] = system: human intestinal epithelial cells (InEpC); test: Proliferation of human intestinal epithelial cells (InEpC); assay type: cell-based; details: 25, 50, 100, 200 μM, 72 h
# Description: as §3
# [3] = system: normal human lung fibroblasts (NHLF); test: Proliferation of normal human lung fibroblasts (NHLF); assay type: cell-based; details: 25, 50, 100, 200 μM, 72 h
# Description: as §3
# U937 cells [4] = system: U937 cells; parameters: method as in PMID 28202522; details: cited from earlier work
# KAT2A = target: T4, KAT2A (Homo sapiens, UniProt Q92830); test: HotSpot KAT assay, KAT2A; assay type: biochemical; details: control compound; read-out: IC50 KAT2A (15 nM)
# T4 construct: human KAT2A (aa 323–837, 15 nM); purchased Reaction Biology Corporation
# T4 sequence (Q92830 323-837): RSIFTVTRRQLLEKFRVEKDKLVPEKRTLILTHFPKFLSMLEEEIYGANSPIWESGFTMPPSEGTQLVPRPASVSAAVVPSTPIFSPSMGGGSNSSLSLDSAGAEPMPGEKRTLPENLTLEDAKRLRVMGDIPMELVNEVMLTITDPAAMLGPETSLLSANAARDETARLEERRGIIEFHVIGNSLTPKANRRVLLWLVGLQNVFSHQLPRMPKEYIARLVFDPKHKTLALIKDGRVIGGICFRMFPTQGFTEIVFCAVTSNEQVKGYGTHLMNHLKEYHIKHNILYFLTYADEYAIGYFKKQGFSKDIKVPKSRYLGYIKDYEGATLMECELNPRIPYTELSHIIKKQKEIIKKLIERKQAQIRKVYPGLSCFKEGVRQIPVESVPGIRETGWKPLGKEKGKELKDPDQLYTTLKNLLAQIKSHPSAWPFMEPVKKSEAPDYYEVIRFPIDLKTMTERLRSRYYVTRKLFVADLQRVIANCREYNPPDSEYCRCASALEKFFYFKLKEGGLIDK
# Description: as §1
# [5] = read-out: IC50 KAT8 (5 nM), enzyme 5 nM, 2-fold serial dilution from 200 μM, NI = no inhibition at 200 μM, mean ± SD of three independent experiments
# [6] = read-out: IC50 KAT3B (1 nM), enzyme 1 nM, NI = no inhibition at 200 μM, mean ± SD of three independent experiments
Compound,IC50 (KAT8; [5]),IC50 (KAT3B; [6]),IC50 (KAT2B),further results
"CC1=NN(c2ccc(C(=O)NCc3ccccc3)cc2)C(=O)/C1=C\c1ccc[nH]1 [Compound 39, (Z)-4-(4-((1H-Pyrrol-2-yl)methylene)-3-methyl-5-oxo-4,5-dihydro-1H-pyrazol-1-yl)-N-benzylbenzamide]",> 200 µM,> 200 µM,> 200 µM,"IC50 HCT116, 72 h (HCT116 cells): No inhibition at 100 µM; IC50 H1299, 72 h (H1299 cells): No inhibition at 100 µM; IC50 A549, 72 h (A549 cells): No inhibition at 100 µM; IC50 U937, 72 h (U937 cells [1]): No inhibition at 100 µM; effect on proliferation of AHH-1 cells (AHH-1 cells; 25, 50, 100, 200 μM): did not significantly affect the proliferation; IC50 (AHH-1 cells; Homo sapiens, AHH-1, NI = no inhibition at 200 µM): > 200 µM; effect on proliferation of InEpC [2]: did not significantly affect the proliferation; effect on proliferation of NHLF [3]: did not significantly affect the proliferation"
"CC1=NN(c2ccc(C(=O)O)cc2)C(=O)/C1=C\c1ccccc1 [Compound 22, (Z)-4-(4-Benzylidene-3-methyl-5-oxo-4,5-dihydro-1H-pyrazol-1-yl)benzoic Acid]",29.2 ± 1.7 µM,> 200 µM,> 200 µM,
"CC1=NN(c2ccc(C(=O)O)cc2)C(=O)/C1=C\c1cccn1-c1ccccc1 [Compound 29, (Z)-4-(3-Methyl-5-oxo-4-((1-phenyl-1H-pyrrol-2-yl)methylene)-4,5-dihydro-1H-pyrazol-1-yl)benzoic Acid]",18.6 ± 0.8 µM,14.6 ± 0.6 µM,> 200 µM,
"Cc1nn(-c2ccc(C(=O)O)cc2)c(O)c1Cc1ccccc1 [Compound 32, 4-(4-Benzyl-5-hydroxy-3-methyl-1H-pyrazol-1-yl)benzoic Acid]",26.9 ± 2.3 µM,> 200 µM,> 200 µM,
"CC1=NN(c2ccc(C(=O)O)cc2)C(=O)/C1=C\c1cccn1C [Compound 28, (Z)-4-(3-Methyl-4-((1-methyl-1H-pyrrol-2-yl)methylene)-5-oxo-4,5-dihydro-1H-pyrazol-1-yl)benzoic Acid]",15.1 ± 1 µM,20.8 ± 1 µM,> 200 µM,
"CC1=NN(c2ccc(C(=O)O)cc2)C(=O)/C1=C\c1cc2ccccc2[nH]1 [Compound 26, (Z)-4-(4-((1H-Indol-2-yl)methylene)-3-methyl-5-oxo-4,5-dihydro-1H-pyrazol-1-yl)benzoic Acid]",20.1 ± 0.9 µM,1.6 ± 0.08 µM,> 200 µM,
"CCCCCCCc1ccc(CCc2cccc(O)c2C(=O)O)cc1 [III (MG149), reference compound]",20.3 ± 1.3 µM,22.3 ± 1.1 µM,> 200 µM,antiproliferative activity in U937 and other AML cell lines (U937 cells [4]): exerted antiproliferative activity
"CC(C)C1=NN(c2ccc(C(=O)O)cc2)C(=O)/C1=C\c1ccc[nH]1 [Compound 33, (Z)-4-(4-((1H-Pyrrol-2-yl)methylene)-3-isopropyl-5-oxo-4,5-dihydro-1H-pyrazol-1-yl)benzoic Acid]",13.9 ± 0.9 µM,> 200 µM,> 200 µM,
"CC1=NN(c2ccc(C(=O)O)cc2)C(=O)C1=Cc1ccco1 (mixture of isomers) [Compound 20, 4-(4-(Furan-2-ylmethylene)-3-methyl-5-oxo-4,5-dihydro-1H-pyrazol-1-yl)benzoic Acid]",,,> 200 µM,IC50 (KAT8): 16.8 ± 0.9 µM; IC50 (KAT3B): 6.3 ± 0.4 µM
"CCCCCCCCCCCCCCCc1cccc(O)c1C(=O)O [I (AA), anacardic acid, reference compound]",,22.9 ± 1.3 µM,39.7 ± 1.1 µM,IC50 (KAT2A): 42.1 µM
"CC1=NN(c2cccc(C(=O)O)c2)C(=O)/C1=C\c1ccc[nH]1 [Compound 36, (Z)-3-(4-((1H-Pyrrol-2-yl)methylene)-3-methyl-5-oxo-4,5-dihydro-1H-pyrazol-1-yl)benzoic Acid]",19.3 ± 1.3 µM,> 200 µM,> 200 µM,
"CC1=NN(c2ccc(C(=O)O)cc2)C(=O)/C1=C\c1cc(C(=O)c2ccccc2)c[nH]1 [Compound 1, (Z)-4-(4-((4-Benzoyl-1H-pyrrol-2-yl)methylene)-3-methyl-5-oxo-4,5-dihydro-1H-pyrazol-1-yl)benzoic Acid]",90.5 ± 11.3 µM,13.6 ± 1 µM,> 200 µM,
